{"source": "patent US8410161B2", "about": "“Thioxanthone ring system derivatives” (National Defense Medical Center, priority 2010, dated 2013)", "format_in_all_cases": "cell-based", "key": {"LOX IMVI": {"tested_on": "LOX IMVI", "experiment": "NCI in vitro DTP human cell line screen, LOX IMVI", "settings": "Melanoma, 1.00E−5 Molar", "description": "(§1) Then, a cell toxicity assay of the cancer lines made by National Cancer Institute will be discussed as follows. The cell toxicity assay is performed by choosing ten compounds (existing certification numbers) from the 59 compounds disclosed in the present invention first."}, "OVCAR-3": {"tested_on": "OVCAR-3", "experiment": "NCI in vitro DTP human cell line screen, OVCAR-3", "settings": "Ovarian Cancer, 1.00E−5 Molar", "description": "as §1"}, "MDA-MB-435": {"tested_on": "MDA-MB-435", "experiment": "NCI in vitro DTP human cell line screen, MDA-MB-435", "settings": "Melanoma, 1.00E−5 Molar", "description": "as §1"}, "NCI/ADR-RES": {"tested_on": "NCI/ADR-RES", "experiment": "NCI in vitro DTP human cell line screen, NCI/ADR-RES", "settings": "Ovarian Cancer, 1.00E−5 Molar", "description": "as §1"}, "SK-MEL-28": {"tested_on": "SK-MEL-28", "experiment": "NCI in vitro DTP human cell line screen, SK-MEL-28", "settings": "Melanoma, 1.00E−5 Molar", "description": "as §1"}, "SR": {"tested_on": "SR", "experiment": "NCI in vitro DTP human cell line screen, SR", "settings": "Leukemia, 1.00E−5 Molar", "description": "as §1"}, "786-0": {"tested_on": "786-0", "experiment": "NCI in vitro DTP human cell line screen, 786-0", "settings": "Renal Cancer, 1.00E−5 Molar", "description": "as §1"}, "T-47D": {"tested_on": "T-47D", "experiment": "NCI in vitro DTP human cell line screen, T-47D", "settings": "Breast Cancer, 1.00E−5 Molar", "description": "as §1"}, "NCI-H226": {"tested_on": "NCI-H226", "experiment": "NCI in vitro DTP human cell line screen, NCI-H226", "settings": "Non-Small Cell Lung Cancer, 1.00E−5 Molar", "description": "as §1"}, "COLO 205": {"tested_on": "COLO 205", "experiment": "NCI in vitro DTP human cell line screen, COLO 205", "settings": "Colon Cancer, 1.00E−5 Molar", "description": "as §1"}, "ACHN": {"tested_on": "ACHN", "experiment": "NCI in vitro DTP human cell line screen, ACHN", "settings": "Renal Cancer, 1.00E−5 Molar", "description": "as §1"}, "NCI-H322M": {"tested_on": "NCI-H322M", "experiment": "NCI in vitro DTP human cell line screen, NCI-H322M", "settings": "Non-Small Cell Lung Cancer, 1.00E−5 Molar", "description": "as §1"}, "HCT-15": {"tested_on": "HCT-15", "experiment": "NCI in vitro DTP human cell line screen, HCT-15", "settings": "Colon Cancer, 1.00E−5 Molar", "description": "as §1"}, "SK-MEL-5": {"tested_on": "SK-MEL-5", "experiment": "NCI in vitro DTP human cell line screen, SK-MEL-5", "settings": "Melanoma, 1.00E−5 Molar", "description": "as §1"}, "A control cell lines": {"tested_on": "A control cell lines", "experiment": "MTT assay, A control cell lines (lung cancer cell)", "from_the_text": "Please refer to Table 1 and FIGS. 4A-4C. According to a MTT assay (Table 1), various cell viabilities of the A control cell lines can be obtained and illustrated in FIG. 4A while the compounds No. 2˜30 are used to treat A control cell lines, wherein A control cell lines are lung cancer cell."}, "UACC-62": {"tested_on": "UACC-62", "experiment": "NCI in vitro DTP human cell line screen, UACC-62", "settings": "Melanoma, 1.00E−5 Molar", "description": "as §1"}, "UACC-257": {"tested_on": "UACC-257", "experiment": "NCI in vitro DTP human cell line screen, UACC-257", "settings": "Melanoma, 1.00E−5 Molar", "description": "as §1"}, "MDA-MB-231/ATCC": {"tested_on": "MDA-MB-231/ATCC", "experiment": "NCI in vitro DTP human cell line screen, MDA-MB-231/ATCC", "settings": "Breast Cancer, 1.00E−5 Molar", "description": "as §1"}, "HL-60(TB)": {"tested_on": "HL-60(TB)", "experiment": "NCI in vitro DTP human cell line screen, HL-60(TB)", "settings": "Leukemia, 1.00E−5 Molar", "description": "as §1"}, "SK-MEL-2": {"tested_on": "SK-MEL-2", "experiment": "NCI in vitro DTP human cell line screen, SK-MEL-2", "settings": "Melanoma, 1.00E−5 Molar", "description": "as §1"}, "NCI-H522": {"tested_on": "NCI-H522", "experiment": "NCI in vitro DTP human cell line screen, NCI-H522", "settings": "Non-Small Cell Lung Cancer, 1.00E−5 Molar", "description": "as §1"}, "SK-OV-3": {"tested_on": "SK-OV-3", "experiment": "NCI in vitro DTP human cell line screen, SK-OV-3", "settings": "Ovarian Cancer, 1.00E−5 Molar", "description": "as §1"}, "OVCAR-4": {"tested_on": "OVCAR-4", "experiment": "NCI in vitro DTP human cell line screen, OVCAR-4", "settings": "Ovarian Cancer, 1.00E−5 Molar", "description": "as §1"}, "M14": {"tested_on": "M14", "experiment": "NCI in vitro DTP human cell line screen, M14", "settings": "Melanoma, 1.00E−5 Molar", "description": "as §1"}, "MOLT-4": {"tested_on": "MOLT-4", "experiment": "NCI in vitro DTP human cell line screen, MOLT-4", "settings": "Leukemia, 1.00E−5 Molar", "description": "as §1"}, "MALME-3M": {"tested_on": "MALME-3M", "experiment": "NCI in vitro DTP human cell line screen, MALME-3M", "settings": "Melanoma, 1.00E−5 Molar", "description": "as §1"}, "DU145": {"tested_on": "DU145", "experiment": "NCI in vitro DTP human cell line screen, DU145", "settings": "Prostate Cancer, 1.00E−5 Molar", "description": "as §1"}, "MDA-MB-468": {"tested_on": "MDA-MB-468", "experiment": "NCI in vitro DTP human cell line screen, MDA-MB-468", "settings": "Breast Cancer, 1.00E−5 Molar", "description": "as §1"}, "SNB-75": {"tested_on": "SNB-75", "experiment": "NCI in vitro DTP human cell line screen, SNB-75", "settings": "CNS Cancer, 1.00E−5 Molar", "description": "as §1"}}}
{"smiles": "Cc1cc(C)cc(Sc2ccc3c(=O)c4ccccc4sc3c2Cl)c1", "note": "[No. 14, 4-Chloro-3-(3,5-dimethylphenylthio)-9H-thioxanthen-9-one]", "values": [{"measurement": "Growth Percent", "setting": "LOX IMVI", "result": 96.06, "unit": "%"}, {"measurement": "Growth Percent", "setting": "OVCAR-3", "result": 121.13, "unit": "%"}, {"measurement": "Growth Percent", "setting": "MDA-MB-435", "result": 99.38, "unit": "%"}, {"measurement": "Growth Percent", "setting": "NCI/ADR-RES", "result": 101.13, "unit": "%"}, {"measurement": "Growth Percent", "setting": "SK-MEL-28", "result": 117.96, "unit": "%"}, {"measurement": "Growth Percent", "setting": "SR", "result": 86.99, "unit": "%"}, {"measurement": "Growth Percent", "setting": "786-0", "result": 110.62, "unit": "%"}, {"measurement": "Growth Percent", "setting": "T-47D", "result": 100.87, "unit": "%"}, {"measurement": "Growth Percent", "setting": "NCI-H226", "result": 97.38, "unit": "%"}, {"measurement": "Growth Percent", "setting": "COLO 205", "result": 108.10, "unit": "%"}, {"measurement": "Growth Percent", "setting": "ACHN", "result": 98.35, "unit": "%"}, {"measurement": "Growth Percent", "setting": "NCI-H322M", "result": 116.93, "unit": "%"}, {"measurement": "Growth Percent", "setting": "HCT-15", "result": 97.09, "unit": "%"}, {"measurement": "Growth Percent", "setting": "SK-MEL-5", "result": 104.23, "unit": "%"}, {"measurement": "cell viabilities of A control cell lines (MTT assay)", "setting": "A control cell lines", "result": "112 ± 8.03", "unit": "%"}, {"measurement": "Growth Percent", "setting": "UACC-62", "result": 96.19, "unit": "%"}, {"measurement": "Growth Percent", "setting": "UACC-257", "result": 89.26, "unit": "%"}, {"measurement": "Growth Percent", "setting": "MDA-MB-231/ATCC", "result": 106.25, "unit": "%"}, {"measurement": "Growth Percent", "setting": "HL-60(TB)", "result": 99.82, "unit": "%"}, {"measurement": "Growth Percent", "setting": "SK-MEL-2", "result": 100.30, "unit": "%"}, {"measurement": "Growth Percent", "setting": "NCI-H522", "result": 91.47, "unit": "%"}, {"measurement": "Growth Percent", "setting": "SK-OV-3", "result": 103.14, "unit": "%"}, {"measurement": "Growth Percent", "setting": "OVCAR-4", "result": 101.64, "unit": "%"}, {"measurement": "Growth Percent", "setting": "M14", "result": 107.60, "unit": "%"}, {"measurement": "Growth Percent", "setting": "MOLT-4", "result": 99.59, "unit": "%"}, {"measurement": "Growth Percent", "setting": "MALME-3M", "result": 102.39, "unit": "%"}, {"measurement": "Growth Percent", "setting": "DU145", "result": 118.42, "unit": "%"}, {"measurement": "Growth Percent", "setting": "MDA-MB-468", "result": 110.63, "unit": "%"}, {"measurement": "Growth Percent", "setting": "SNB-75", "result": 84.85, "unit": "%"}]}
